{"source": "paper PMC8151276", "about": "“An Integrated Approach toward NanoBRET Tracers for Analysis of GPCR Ligand Engagement” (Molecules, 2021)", "key": {"LGR4": {"biological_target": "T1, LGR4 (Homo sapiens, UniProt Q9BXB1)", "T1 construct": "purchased Promega (in-house HiBiT-GPCR construct library, NanoBRET)", "T1 sequence (Q9BXB1 25-951)": "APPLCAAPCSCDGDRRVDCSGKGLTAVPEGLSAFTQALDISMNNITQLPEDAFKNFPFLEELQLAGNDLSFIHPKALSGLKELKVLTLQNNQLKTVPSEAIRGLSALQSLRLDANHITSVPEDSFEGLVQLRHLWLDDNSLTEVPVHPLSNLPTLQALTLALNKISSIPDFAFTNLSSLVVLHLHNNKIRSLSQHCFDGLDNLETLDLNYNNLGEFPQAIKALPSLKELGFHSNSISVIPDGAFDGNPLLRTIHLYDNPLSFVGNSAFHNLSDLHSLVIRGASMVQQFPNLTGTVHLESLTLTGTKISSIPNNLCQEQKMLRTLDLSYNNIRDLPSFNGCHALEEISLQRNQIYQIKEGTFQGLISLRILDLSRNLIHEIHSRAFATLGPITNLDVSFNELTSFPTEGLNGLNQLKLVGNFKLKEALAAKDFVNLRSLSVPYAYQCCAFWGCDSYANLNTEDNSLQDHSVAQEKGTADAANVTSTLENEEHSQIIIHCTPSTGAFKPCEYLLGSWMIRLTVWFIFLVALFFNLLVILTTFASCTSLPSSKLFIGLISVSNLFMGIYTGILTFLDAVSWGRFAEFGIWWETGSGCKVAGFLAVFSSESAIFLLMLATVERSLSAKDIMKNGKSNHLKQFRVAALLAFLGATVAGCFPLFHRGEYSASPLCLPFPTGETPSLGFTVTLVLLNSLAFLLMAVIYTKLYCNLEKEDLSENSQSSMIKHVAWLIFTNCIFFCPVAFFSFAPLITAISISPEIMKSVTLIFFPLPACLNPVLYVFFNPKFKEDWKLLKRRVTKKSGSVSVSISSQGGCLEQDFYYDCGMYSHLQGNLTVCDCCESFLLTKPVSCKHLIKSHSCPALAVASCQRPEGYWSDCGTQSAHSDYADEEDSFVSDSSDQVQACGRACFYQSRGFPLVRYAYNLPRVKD", "assay": "NanoBRET screen HiBiT-LGR4 in HEK293", "assay_type": "binding", "conditions": "LGR4", "experimental": "(§1) Each tracer candidate was screened across the entire library of HiBiT-GPCR constructs using NanoBRET as the detection modality. As depicted in Figure 4A, the specificity of interactions was evaluated through decrease in BRET due to competitive displacement of a bound tracer by excess parental compound. Each tracer was analyzed for binding to each HiBiT-GPCR fusion in the absence and in the presence of competing parental compound. Briefly, HEK293 cells were transfected with HiBiT-GPCR constructs diluted into promoterless DNA to reduce expression and maximize translocation to the cell surface. Each tracer candidate was then screened at concentrations of 1 μM and 0.1 μM across cells expressing these fusions. Cells were treated for 1.5 h with tracer either alone or in the presence of 20 μM competing parental compound (i.e., control). BRET was measured upon addition of purified LgBiT and subsequent complementation with HiBiT genetically fused to a GPCR. The specificity of interactions was assessed through a decrease in BRET signal due to competitive displacement of the bound tracer. To further gauge the robustness of these interactions, the fold response over the control (i.e., BRETtracer/BRETcontrol) was calculated. We chose a 1.5-fold response, which translates to ≥7-fold signal over noise as the minimal threshold required to score an interaction as positive. […]. Below we highlight the screening results obtained for our exemplary fluorescent tracers based on Clozapine, Amitriptyline and AZD1283.\n(§2) HiBiT-GPCR DNA constructs were diluted in 10 mM Tris pH 8 to a final concentration of 0.01 μg/μL, arrayed in 96-well plates and stored at −20 °C. For transfection, HEK293 cells were suspended in Opti-MEM (without phenol red) supplemented with 2% fetal bovine serum (Seradigm) and 100 units/mL penicillin–streptomycin (Gibco) at a final concentration of 220,000 cells/mL and dispensed into white 96-well plates at 90 μL/well. Subsequent transfections and screens were carried using an Agilent Bravo Automated Liquid Handling Platform. First, the 96-well HiBiT DNA arrays were diluted 25-fold in Opti-MEM (without serum or phenol red) to a final concentration of 0.0004 μg/μL and 20 μL of the diluted DNAs were transferred into new 96-well plates. Next, promoterless carrier DNA (1 μg/μL) was diluted 25-fold (0.04 μg/μL) and then dispensed into the diluted arrays at 20 μL/well. Following brief mixing, Viafect transfection reagent (Promega) diluted 16-fold into Opti-MEM was dispensed into the plates at 40 μL/well. After mixing by pipetting, plates were incubated for 10 min on the pipetting station deck. The DNA-transfection reagent complexes were then added to plates containing cells. To facilitate the screen, 10 μL of DNA-transfection reagent complexes were added in duplicates to the top 4 and bottom 4 rows, resulting in two identical 48-well arrays per plate. Plates with transfected cells were incubated for 18–20 h at 37 °C/5% CO2. A screen of each tracer across the entire library using two different concentrations requires duplicate plates of transfected cells. Depending on the number of tracers being screened, transfections can be scaled up using the same ratios. The next day, for each tracer, four 20× screening solutions in tracer dilution buffer (Promega) were prepared: two duplicates at final concentration of 20 μM and two duplicates at a final concentration of 2 μM. A competing unmodified compound was added to one of each duplicate at a final concentration of 400 μM. The four resulting solutions were diluted 4-fold in Opti-MEM without serum or phenol red to generate 5× solutions (5 µM and 0.5 µM tracer +/− 100 μM competing compound). To screen the library, a BioTek MultiFlo FX liquid dispenser was used to dispense 22.5 µL of tracer solution to the top 4 rows and 22.5 µL tracer + competing compound solution to the 4 bottom rows. Plates were briefly mixed on an orbital shaker and incubated for 1.5 h at room temperature. […]"}, "HCRTR1": {"biological_target": "T2, HCRTR1 (Homo sapiens, UniProt O43613)", "T2 construct": "purchased Promega (in-house HiBiT-GPCR construct library, NanoBRET)", "T2 sequence (O43613 1-425)": "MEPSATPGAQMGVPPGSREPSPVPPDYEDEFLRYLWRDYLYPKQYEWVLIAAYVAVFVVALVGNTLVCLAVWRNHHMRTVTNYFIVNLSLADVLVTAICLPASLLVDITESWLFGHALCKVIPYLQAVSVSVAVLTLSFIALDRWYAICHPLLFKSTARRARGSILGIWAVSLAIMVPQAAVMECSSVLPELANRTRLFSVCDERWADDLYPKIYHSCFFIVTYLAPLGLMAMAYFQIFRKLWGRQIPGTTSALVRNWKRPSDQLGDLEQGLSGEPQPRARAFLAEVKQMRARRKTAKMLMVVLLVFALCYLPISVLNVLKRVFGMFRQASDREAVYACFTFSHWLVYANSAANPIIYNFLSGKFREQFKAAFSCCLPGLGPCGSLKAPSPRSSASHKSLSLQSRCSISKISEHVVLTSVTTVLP", "assay": "NanoBRET screen HiBiT-HCRTR1 in HEK293", "assay_type": "binding", "conditions": "HCRTR1", "experimental": "as §1, §2"}}, "data": [{"smiles": "O=C(CCc1ccc2n1[B-](F)(F)[N+]1=C(c3ccc[nH]3)C=CC1=C2)NCCOCCOCCNC(=O)OCCOCCN1CCN(C2=Nc3ccccc3Sc3ccccc32)CC1", "note": "[Quetiapine-a-2-NB590]", "values": [{"measurement": "NanoBRET Fold Response", "setting": "LGR4; tracer 0.1μM", "value": 1.00}, {"measurement": "NanoBRET Fold Response", "setting": "LGR4; tracer 1μM", "value": 1.05}, {"measurement": "NanoBRET Fold Response", "setting": "HCRTR1; tracer 0.1μM", "value": 0.98}, {"measurement": "NanoBRET Fold Response", "setting": "HCRTR1; tracer 1μM", "value": 0.77}]}, {"smiles": "Cc1nc2n(c(=O)c1CCN1CCC(c3noc4cc(F)ccc34)CC1)CCCC2OC(=O)NCCOCCOCCOCCOCCNC(=O)CCc1ccc2n1[B-](F)(F)[N+]1=C(c3ccc[nH]3)C=CC1=C2", "note": "(centres unmarked) [Risperidone-2-NB590]", "values": [{"measurement": "NanoBRET Fold Response", "setting": "LGR4; tracer 0.1μM", "value": 0.93}, {"measurement": "NanoBRET Fold Response", "setting": "LGR4; tracer 1μM", "value": 0.98}, {"measurement": "NanoBRET Fold Response", "setting": "HCRTR1; tracer 0.1μM", "value": 1.01}, {"measurement": "NanoBRET Fold Response", "setting": "HCRTR1; tracer 1μM", "value": 1.05}]}, {"smiles": "CC(C)N(CC[C@H](c1ccccc1)c1cc(CCNC(=O)CCOCCOCCOCCOCCNC(=O)CCc2ccc3n2[B-](F)(F)[N+]2=C(c4ccc[nH]4)C=CC2=C3)ccc1O)C(C)C", "note": "[Tolterodine-2-NB590]", "values": [{"measurement": "NanoBRET Fold Response", "setting": "LGR4; tracer 0.1μM", "value": 1.12}, {"measurement": "NanoBRET Fold Response", "setting": "LGR4; tracer 1μM", "value": 1.24}, {"measurement": "NanoBRET Fold Response", "setting": "HCRTR1; tracer 0.1μM", "value": 1.04}, {"measurement": "NanoBRET Fold Response", "setting": "HCRTR1; tracer 1μM", "value": 1.16}]}, {"smiles": "CC(C)N(CC[C@H](c1ccccc1)c1cc(CCNC(=O)c2ccc(CNC(=O)CCc3ccc4n3[B-](F)(F)[N+]3=C(c5ccc[nH]5)C=CC3=C4)cc2)ccc1O)C(C)C", "note": "[Tolterodine-BZ-NB590]", "values": [{"measurement": "NanoBRET Fold Response", "setting": "LGR4; tracer 0.1μM", "value": 1.02}, {"measurement": "NanoBRET Fold Response", "setting": "LGR4; tracer 1μM", "value": 1.02}, {"measurement": "NanoBRET Fold Response", "setting": "HCRTR1; tracer 0.1μM", "value": 0.86}, {"measurement": "NanoBRET Fold Response", "setting": "HCRTR1; tracer 1μM", "value": 1.07}]}, {"smiles": "CCCn1c(=O)c2[nH]c(-c3ccc(OCC(=O)NCCNC(=O)CCOCCNC(=O)c4ccc(CNC(=O)CCc5ccc6n5[B-](F)(F)[N+]5=C(c7ccc[nH]7)C=CC5=C6)cc4)cc3)nc2n(CCC)c1=O", "note": "[XAC-3-NB590]", "values": [{"measurement": "NanoBRET Fold Response", "setting": "LGR4; tracer 0.1μM", "value": 1.02}, {"measurement": "NanoBRET Fold Response", "setting": "LGR4; tracer 1μM", "value": 0.99}, {"measurement": "NanoBRET Fold Response", "setting": "HCRTR1; tracer 0.1μM", "value": 0.91}, {"measurement": "NanoBRET Fold Response", "setting": "HCRTR1; tracer 1μM", "value": 0.88}]}]}
